Read-outs that look alike come from different tables or passages of the source.
Legend:
TP receptor = target: T1, TP receptor (Rattus norvegicus, UniProt P34978); experiment: In vitro functional assay of TP receptor function using rat aorta; assay type: cell-based; details: read-out: IC50 (TP receptor antagonist)
T1 construct: In an in vitro functional assay of TP receptor function using rat aorta; from tissue; host or cells: rat aorta
T1 sequence (P34978 1-341): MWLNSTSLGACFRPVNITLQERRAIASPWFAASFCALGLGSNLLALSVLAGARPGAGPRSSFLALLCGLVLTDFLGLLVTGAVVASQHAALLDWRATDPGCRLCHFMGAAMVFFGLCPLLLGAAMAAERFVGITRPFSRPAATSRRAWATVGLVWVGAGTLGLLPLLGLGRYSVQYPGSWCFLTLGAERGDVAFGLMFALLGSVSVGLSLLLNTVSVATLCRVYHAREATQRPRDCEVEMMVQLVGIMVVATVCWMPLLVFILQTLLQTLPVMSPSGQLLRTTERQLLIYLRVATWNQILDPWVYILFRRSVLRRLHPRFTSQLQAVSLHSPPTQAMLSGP

[1] = Stability of 6 mg/mL aqueous methylcellulose-polysorbate 80 suspension (HPLC, XRPD, NMR); assay type: physicochemical; details: for Peak purity %: 6 mg/mL aqueous methylcellulose-polysorbate 80 suspension, room temperature
Description: Methylcellulose (0.5 g) was combined with 99.0 g of purified water in a beaker and stirred in a 60-70° C. water bath for 30′-1 hr. The solution was stirred in a 0° C. ice/water bath for another 30′ or until clear. Polysorbate 80 (0.5 g) was added and stirring at room temperature followed for 30′-1 hr or until a clear solution was obtained.
The desired amount of 0.5% methylcellulose and 0.5% polysorbate 80 stock solution for making a 6 mg/mL based on free base (6.48 mg/mL based on HCl salt) was transferred into the vial and sonicated for 20 minutes with alternate stirring for 1-2 minutes. The solution was homogenized for approximately 1-2 minutes.
As with 0.5% methylcellulose formulation prepared previously, the HCl salt was quickly converted to Compound 1 in Form I at T(0) resulting in a crystalline free form suspension as shown by XRPD (FIG. 10) and confirmed by ^1H NMR analysis (FIGS. 11-13). Additionally, the solid form in suspension at T(0) was recovered an subjected to HPLC analysis: […]

rats [2] = details: rat, in vivo, 14 days
Description: (§3) Repeat-dose oral toxicity studies of 7- and 14-days duration have been conducted in rats (up to 600 mg/kg/day) and dogs (up to 200 mg/kg/day).

mice = experiment: Acute oral toxicity study in mice; details: mice; single oral doses 500, 1000 or 2000 mg/kg
Description: (§1) The intended clinical route of administration is oral, thus oral toxicity studies were done in mice, rats and dogs. […] Effects of repeat oral dosing were assessed in rats and dogs in preliminary 7-day toxicity studies followed by a 14-day GLP1 toxicity studies.

[3] = Acute oral toxicity study in mice; details: mouse, in vivo, po
Description: as §1

dogs [4] = details: dog, in vivo
Description: as §3

[5] = Toxicokinetics in 7-day dose range finding study in rats; assay type: in vivo; details: 300 mg/kg/day; for Cmax: rat, plasma, oral
Description: (§2) The animals were dosed orally with the vehicle (0.5% methylcellulose in water), or 15, 75, or 150 mg/kg Compound 1 twice daily for 7 consecutive days. The two daily doses were administered approximately 10 hours apart and the dose volume was 5 mL/kg/b.i.d. for all dose groups. At the end of the dosing period, all animals were euthanized and necropsied. Satellite animals (6/sex/Groups 2-4) were dosed in the same manner as the toxicity animals and plasma samples were collected on Days 1 and 7 for toxicokinetic (TK) analysis. Parameters evaluated during the study were: viability, clinical observations, body weights, feed consumption, clinical pathology (termination), organ weights, macroscopic observations and microscopic pathology.
The plasma AUC0-24 data on Day 1 was consistent with previously conducted single dose studies of Compound 1 in the rat.

rats [6] = experiment: in vivo; details: rat
Description: as §2

in vivo [7] = experiment: in vivo; set-up: species or system rats; details: rat
Description: as §2

dogs [8] = experiment: 14-day repeat-dose oral toxicity study in dogs
Description: as §3

[9] = Pharmacokinetics in CD-1 mice; assay type: in vivo; details: mouse
Description: The pharmacokinetics of Compound 1 were assessed in the same species used in the toxicology studies: CD-1 mice, Sprague Dawley rats and beagle dogs. The pharmacokinetics of Compound 1 were also assessed in cynomolgus monkeys.

rats [10] = experiment: 14-day repeat-dose oral toxicity study in rats; details: assuming efficacious dose in rats 2.3 mg/kg b.i.d. (Ctrough at EC90)
Description: as §3

[11] = Oral pharmacokinetics of Compound 1 in fed or fasted male dogs at 10 mg/kg; assay type: in vivo, male beagle dogs; details: for concentration at 48 hr: oral, read-out: Clast
Description: Non-validated research grade assays were used for these analyses. All pharmacokinetic studies were conducted using fed animals unless otherwise specified.
The oral pharmacokinetics of Compound 1 were determined under fed and fasted conditions in male beagle dogs following a single 10 mg/kg administration (Table 6). […] The tmax occurred sooner after administration in the fasted state (1.5 hours) than in the fed state (2.7 hours). The variability of the systemic exposure of Compound 1 was higher under fed conditions (CV of 67% for AUC0-INF) than under fasted conditions (CV of 27% for AUC0-INF), possibly due to changes in stomach emptying time under fed conditions.

hERG = hERG (Homo sapiens, UniProt Q12809); experiment: hERG channel competitive binding (3H-astemizole); details: probe 3H-astemizole
hERG, sequence (Q12809 whole entry): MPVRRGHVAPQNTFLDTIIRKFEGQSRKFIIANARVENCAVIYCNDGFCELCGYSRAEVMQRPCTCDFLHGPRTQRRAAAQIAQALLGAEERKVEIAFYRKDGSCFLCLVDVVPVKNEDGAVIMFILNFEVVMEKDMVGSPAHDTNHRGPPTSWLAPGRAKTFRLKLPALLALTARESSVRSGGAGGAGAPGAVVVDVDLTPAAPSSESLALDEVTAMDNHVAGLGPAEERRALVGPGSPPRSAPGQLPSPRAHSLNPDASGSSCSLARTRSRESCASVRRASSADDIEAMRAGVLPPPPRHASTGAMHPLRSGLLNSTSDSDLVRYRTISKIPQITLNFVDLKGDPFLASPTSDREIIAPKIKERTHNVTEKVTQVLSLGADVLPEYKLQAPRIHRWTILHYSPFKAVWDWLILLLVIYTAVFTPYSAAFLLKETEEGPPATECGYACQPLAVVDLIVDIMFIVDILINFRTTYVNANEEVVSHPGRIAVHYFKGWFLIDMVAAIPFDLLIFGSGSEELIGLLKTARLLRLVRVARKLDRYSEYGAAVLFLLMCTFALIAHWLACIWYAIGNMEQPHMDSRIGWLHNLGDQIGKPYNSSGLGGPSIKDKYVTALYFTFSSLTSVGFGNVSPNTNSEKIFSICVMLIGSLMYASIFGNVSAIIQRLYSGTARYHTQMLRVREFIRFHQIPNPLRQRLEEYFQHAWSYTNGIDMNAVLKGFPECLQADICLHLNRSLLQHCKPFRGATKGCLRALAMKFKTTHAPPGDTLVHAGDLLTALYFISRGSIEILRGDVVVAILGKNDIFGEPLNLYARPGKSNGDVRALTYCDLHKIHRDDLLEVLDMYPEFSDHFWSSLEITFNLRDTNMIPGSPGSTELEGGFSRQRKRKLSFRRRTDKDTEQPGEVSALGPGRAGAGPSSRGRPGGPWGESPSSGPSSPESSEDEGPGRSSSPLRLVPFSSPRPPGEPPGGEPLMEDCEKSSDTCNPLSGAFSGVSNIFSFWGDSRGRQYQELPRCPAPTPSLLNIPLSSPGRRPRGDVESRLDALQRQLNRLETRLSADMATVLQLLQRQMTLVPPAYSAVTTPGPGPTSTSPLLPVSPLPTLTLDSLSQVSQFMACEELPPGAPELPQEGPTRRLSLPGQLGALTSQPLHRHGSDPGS

in vivo [12] = details: dog, po
Description: as §3

[13] = male, beagle, dog, plasma, po, 10 mg/kg, male dogs, Fasted
[14] = male, beagle, dog, plasma, po, 10 mg/kg, male dogs, Fed

Cc1ccc(NC(=O)C2(c3ccc4c(c3)OC(F)(F)O4)CC2)nc1-c1cccc(C(=O)O)c1 [Compound 1, 3-(6-(1-(2,2-difluorobenzo[d][1,3]dioxol-5-yl)cyclopropanecarboxamido)-3-methylpyridin-2-yl)benzoic acid]
IC50 (TP receptor): 1 to 10 µM
degradation peaks by HPLC [1]: No major degradation peaks were detected
Peak purity % ([1]; T(0)): 98.81%
Peak purity % ([1]; T(24 h)): 98.24%
chemically stable, time ([1]; 24 h, 6 mg/mL): at least 24 hrs
human equivalent dose (based on body surface area) (rats [2]): at least 95 mg/kg
human total daily dose equivalent (rats [2]): approximately 5700 mg
light microscopy of more than 40 organs and tissues (rats [2]): no significant Compound 1 related findings
dosage tolerated without toxic effects (rats [2]; po): up to 600 mg/kg/day
organ weights and gross observations at necropsy (mice): no effects on organ weights and no gross observations
MTD at 14 days [3]: > 2000 mg/kg
NOAEL at 14 days [3]: > 2000 mg/kg
ECG tracings and opthalmology examinations (dogs [4]): within normal limits
RBC parameters, decreases (dogs [4]): 7-14%
total cholesterol, decreases (dogs [4]): 21-29%
triglycerides, decreases (dogs [4]): 44-46%
light microscopy findings (dogs [4]; 14 days): no significant Compound 1 related findings
dosage tolerated without toxic effect (dogs [4]; po, 14 days): up to 200 mg/kg/day
average plasma concentrations ([5]; females): ~190 µM
Cmax ([5]; female, females): ~280 µM
Cmax ([5]; male, males): ~430 µM
gross lesions and histopathological findings (rats [6]): no test article related gross lesions or histopathological findings
adrenal gland weights (rats [6]; 300 mg/kg/day): higher adrenal gland weights
body weight (rats [6]; 300 mg/kg/day): minor effects on body weight
serum potassium (rats [6]; 300 mg/kg/day): lower serum potassium
urinary pH (rats [6]; 300 mg/kg/day): slight increase in urinary pH
NOAEL at 7 days (in vivo [7]): 300 mg/kg/day
projected safety margin range from the dog NOAEL (dogs [8]; assuming efficacious dose in dogs 0.91 mg/kg b.i.d. (Ctrough at EC90)): 110 ×
low prostate:body weight and prostate:brain weight ratios vs. vehicle control group (dogs [8]; male dogs, 14-day study, all dose levels): 52-62%
clearance [9]: very low clearance
projected safety margin from the rat NOAEL (rats [10]): 130 ×
clearance ([11]; dog): very low clearance
F ([11]; male dogs, 10 mg/kg, Fasted): 53%
tlast ([11]; male dogs, 10 mg/kg, Fasted): 48 h
F ([11]; male dogs, 10 mg/kg, Fed): 53%
tlast ([11]; male dogs, 10 mg/kg, Fed): 48 h
concentration at 48 hr ([11]; male, beagle, dog, plasma, 10 mg/kg, male dogs, 10 mg/kg, Fasted): 66 ng/mL
concentration at 48 hr ([11]; male, beagle, dog, plasma, 10 mg/kg, male dogs, 10 mg/kg, Fed): 47 ng/mL
half-life ([11]; male, beagle, dog, plasma, po, 10 mg/kg, male dogs, 10 mg/kg, Fasted, read-out: t1/2 (converted)): 6.3 h
half-life ([11]; male, beagle, dog, plasma, po, 10 mg/kg, male dogs, 10 mg/kg, Fed, read-out: t1/2 (converted)): 6.6 h
AUC(0-inf) [11, 13]: 35800 ng·h/mL
Cmax [11, 13]: 7900 ng/mL
Tmax [11, 13]: 1.5 h
AUC(0-inf) [11, 14]: 35700 ng·h/mL
Cmax [11, 14]: 4100 ng/mL
Tmax [11, 14]: 2.7 h
half-life ([11]; male, beagle, dog, plasma, po, administered orally to dogs, read-out: half-life): 5 to 9 h
bioavailability ([11]; male, beagle, plasma, po, dog, 10 mg/kg orally in a methylcellulose suspension): 53%
inhibition at 10 µM (hERG): 4%
NOAEL at 14 days (in vivo [12]): 200 mg/kg/day

Source: US20090176839A1, “FORMULATIONS OF 3-(6-(1-(2,2-DIFLUOROBENZO[D][1,3]DIOXOL-5-YL) CYCLOPROPANECARBOXAMIDO)-3-METHYLPYRIDIN-2-YL)BENZOIC ACID” (priority 2007, published 2009)
